Reference: publication PMC7114212 (Antiviral Research, 2006)
Where two headings read alike, the source gives them in different places.

Tests used:
FIPV strain 79-1146 = assay: microbe, parasite or virus in culture; assay type: cell-based, feline infectious peritonitis virus; conditions: read-out: FIPV (CRFK) EC50
HIV-1 (IIIB) = conditions: read-out: HIV-1 (CEM) EC50; cited from earlier work
CEM cells = conditions: cited from earlier work; for IC50: read-out: HIV-1 (CEM) IC50 (50% cytostatic concentration)
[1] = tested on: Crandell-Reese feline kidney (CRFK) cells
FIPV = assay type: cell-based, feline infectious peritonitis virus
[2] = mouse, in vivo, cited from earlier work

CN[C@H](CC(C)C)C(=O)N[C@H]1C(=O)N[C@@H](CC(N)=O)C(=O)N[C@H]2C(=O)N[C@H]3C(=O)N[C@H](C(=O)N[C@H](C(=O)O)c4cc(O)cc(O)c4-c4cc3ccc4O)[C@H](O)c3ccc(c(Cl)c3)Oc3cc2cc(c3O[C@@H]2O[C@H](CO)[C@@H](O)[C@H](O)[C@H]2O[C@H]2C[C@](C)(N)[C@H](O)[C@H](C)O2)Oc2ccc(cc2Cl)[C@H]1O [compound 1, Vancomycin]
SARS-CoV (Vero) CC50 (Vero cells): neither toxic | EC50 (FIPV strain 79-1146; Alphacoronavirus 1, CRFK, 96 h): > 80 µM | EC50 (FIPV strain 79-1146): > 100 µM | EC50 (HIV-1 (IIIB)): > 250 µM | HIV-1 (CEM) IC50 (50% cytostatic concentration) (CEM cells): neither toxic | IC50 (CEM cells): > 500 µM | FIPV (CRFK) CC50 [1]: neither toxic

Carboxyeremomycin [compound 14]
EC50 (FIPV strain 79-1146): > 80 µM

De-Cl-eremomycin aglycon [compound 89]
CC50 (Vero cells): > 100 µM | EC50 (FIPV strain 79-1146): > 100 µM | EC50 (HIV-1 (IIIB)): > 125 µM | CC50 [1]: > 100 µM

Eremomycin [compound 7]
SARS-CoV (Vero) CC50 (Vero cells): neither toxic | EC50 (FIPV strain 79-1146): > 100 µM | EC50 (HIV-1 (IIIB)): > 250 µM | HIV-1 (CEM) IC50 (50% cytostatic concentration) (CEM cells): neither toxic | IC50 (CEM cells): > 500 µM | FIPV (CRFK) CC50 [1]: neither toxic

Eremomycin aglycon [compound 71]
CC50 (Vero cells): > 80 µM | EC50 (FIPV strain 79-1146): > 80 µM | EC50 (HIV-1 (IIIB)): 50 µM | IC50 (CEM cells): > 500 µM | CC50 [1]: > 80 µM

Eremomycin aglycon hexapeptide [compound 84]
CC50 (Vero cells): > 80 µM | EC50 (FIPV strain 79-1146): > 80 µM | EC50 (HIV-1 (IIIB)): 115 ± 21.2 µM | IC50 (CEM cells): > 250 µM | CC50 [1]: > 80 µM

N-Deacyl-A40926 [compound 55]
SARS-CoV (Vero) CC50 (Vero cells): neither toxic | EC50 (FIPV strain 79-1146): > 80 µM | EC50 (HIV-1 (IIIB)): > 250 µM | HIV-1 (CEM) IC50 (50% cytostatic concentration) (CEM cells): neither toxic | IC50 (CEM cells): > 500 µM | FIPV (CRFK) CC50 [1]: neither toxic

Ristomycin [compound 50]
SARS-CoV (Vero) CC50 (Vero cells): neither toxic | EC50 (FIPV strain 79-1146): > 80 µM | EC50 (HIV-1 (IIIB)): > 250 µM | HIV-1 (CEM) IC50 (50% cytostatic concentration) (CEM cells): neither toxic | IC50 (CEM cells): > 500 µM | FIPV (CRFK) CC50 [1]: neither toxic

Ristosaminylaglycon of ristomycin [compound 51]
EC50 (FIPV strain 79-1146): > 80 µM | EC50 (HIV-1 (IIIB)): > 50 µM | IC50 (CEM cells): > 100 µM

Teicoplanin [compound 52]
SARS-CoV (Vero) CC50 (Vero cells): neither toxic | EC50 (FIPV strain 79-1146): > 80 µM | HIV-1 (CEM) IC50 (50% cytostatic concentration) (CEM cells): neither toxic | IC50 (CEM cells): > 500 µM | FIPV (CRFK) CC50 [1]: neither toxic | delay of addition after FIPV infection that keeps full antiviral activity (FIPV): markedly less delayed

Vancomycin aglycon [compound 65]
CC50 (Vero cells): > 80 µM | EC50 (FIPV strain 79-1146): > 80 µM | EC50 (HIV-1 (IIIB)): 65 µM | IC50 (CEM cells): > 500 µM | CC50 [1]: > 80 µM

Vancomycin aglycon hexapeptide [compound 69]
CC50 (Vero cells): > 100 µM | EC50 (FIPV strain 79-1146): > 100 µM | EC50 (HIV-1 (IIIB)): ≥ 125 µM | CC50 [1]: > 100 µM

adamantyl-2 amide of eremomycin [AN0900]
Vss ([2]; iv): 26.285 L/kg | half-life ([2]; iv): 3.08 h | tissue penetration [2]: deep tissue penetration

demannosyl-N-deacylA40926 [compound 57]
SARS-CoV (Vero) CC50 (Vero cells): neither toxic | EC50 (FIPV strain 79-1146): > 80 µM | EC50 (HIV-1 (IIIB)): 115 ± 21 µM | HIV-1 (CEM) IC50 (50% cytostatic concentration) (CEM cells): neither toxic | IC50 (CEM cells): > 500 µM | FIPV (CRFK) CC50 [1]: neither toxic
